Here are results for five compounds from patent US11304930B2, “Ammonium salts of 3-(3,5-dibromo-4-hydroxybenzyliden)-5-indo-1,3-dihydroindol-2-one and uses thereof” (Metagone Biotech Inc., priority 2018, dated 2022).

Where two headings read alike, the source gives them in different places.

The test system of one series is SUN-1 cells. Description: MTS cell viability / proliferation assay. Type of series: cell-based. To be noted: 72 hrs, in combination with sorafenib. As to the method: Gastric cancer cell line SUN-1 was purchased from the American Type Culture Collection (ATCC; Manassas, Va., USA) and were maintained in Roswell Park Memorial Institute-1640 (RPMI-1640) supplemented with 1.5 g/L sodium bicarbonate, 10% fetal bovine serum (FBS), 1.0% antibiotic-antimycotic, L-glutamine (2.0×10^−3 M), and 1.0% nonessential amino acids.
MTS cell proliferation assay kit (Abcam, Cambridge, UK) was used to evaluate cell viability. Briefly, SNU-1 cells were seeded in each well of a 96-well plate at the density of 8,000 cells/well and incubated overnight at 37° C. Cells were then treated with a test drug for 48 or 72 h at 37° C. Then, 20 μl MTS/well was added and incubated for 3 h at 37° C. Cell viability was measured by absorbance at 490 nm in a microplate reader.
To validate the bioactivity of the ammonium salts of GW5074 of Example 1, their effects on cell proliferation with or without the addition of another cell proliferation inhibitor-sorafenib, were investigated using MTS cell proliferation assay kit in accordance with the manufacturer's protocols. Results are illustrated FIGS. 1A and 1B.

Series [1] can be described thus: Pilot pharmacokinetic study in mice. The note with it: single dose 40 mg/Kg, GW5074 measured in plasma; for AUC0-t: 0 to 24 hours.
Description: (§1) B6 mice about 6-8 weeks of age (National laboratory animal center, Taipei, Taiwan) were used in the present study.
(§2) Pilot PK studies were carried out in mice.
(§3) Mice were fasting for 8 hrs before dosing. […] Blood samples were drawn from the tail vein at pre-designated time points. Each samples were extracted with 80% ethanol for 30 minutes and individually filtered through a 0.22 μm PVDF filter, then were subjected to HPLC-MS/MS.
Series [2] is described as follows: Water solubility of GW5074 salts.
For series [3] the following is noted: mouse, in vivo, 40 mg/kg.
Description: as §1, §2, §3

For `O=C1Nc2ccc(I)cc2C1=Cc1cc(Br)c(O)c(Br)c1.OCCN(CCO)CCO` [MG-A3, Triethanolamine Salt of GW5075], the growth inhibition entry in the series on SUN-1 cells is given as “about 70%”. In addition, in series [1], the Cmax is 6844.6 ng/mL, the T1/2 came to 4.364 h, the time to peak (Tmax) turned out to be 0.5 h and the AUC0-t turned out to be 8258.7 ng·h/mL.
For the compound `CC(C)(N)CN.O=C1Nc2ccc(I)cc2C1=Cc1cc(Br)c(O)c(Br)c1` [MG-A2, 2-Amino-2-Methylpropylamine Salt of GW5075], in the series on SUN-1 cells, the growth inhibition result is “about 70%”. Also, the Solubility in series [2] was 0.19 mg/100 mL. In series [1], the highest concentration (Cmax) is reported as 6447.7 ng/mL, the T1/2 worked out at 4.855 h, the Tmax stood at 0.5 h and the AUC0-t is 7936.2 ng·h/mL.
`O=C1Nc2ccc(I)cc2C1=Cc1cc(Br)c(O)c(Br)c1` [GW5074, 3-(3,5-dibromo-4-hydroxybenzyliden)-5-iodo-1,3-duhydroindol-2-one]: the growth inhibition entry with SUN-1 cells is “about 70%”. For the same compound, in series [3], the AUC0-t is 6127.9 ng·h/mL, the Cmax stood at 4905.2 ng/mL, the T1/2 turned out to be 3.719 h and the Tmax came out at 0.5 h.
Regarding `C1COCCN1.O=C1Nc2ccc(I)cc2C1=Cc1cc(Br)c(O)c(Br)c1` [Morpholine Salt of GW5075], in series [2], the Solubility is listed as 0.57 mg/100 mL.
Take `O=C1Nc2ccc(I)cc2C1=Cc1cc(Br)c([O-])c(Br)c1.[Na+]` [MG-A1, Sodium Salts of GW5074]: the growth inhibition entry in the series with SUN-1 cells is on record as “about 70%”.
